# Assay results taken from US20070167499A1, “Biaryl linked hydroxamates: preparation and pharmaceutical applications” (A*BIO Pte Ltd., priority 2003, published 2007).
# System: Ramos Burkitt-lymphoma cells
# Assay: Apoptosis assay (Annexin V / PI flow cytometry)
# Type: cell-based, human
# Conditions: 48 h after treatment with 10 μM
# Excerpt: In various therapies such as for proliferative disorders like cancer, the selective induction of apoptosis in proliferating cells such as tumor cells is one of the desirable approaches, and can be mediated by treatment with various anti-proliferative compounds [Blagosklonny MV, Oncogene, 23(16): 2967 (2004); Kaufmann and Eamshaw, Exp Cell Res. 256(1): 42-9 (2000)]. Programmed cell death or apoptosis is the cellular response to stress factors such as DNA damage introduced during conventional anti-cancer treatment. The concerted sequence of events during apoptosis, clearly differentiate this pathway from a non-coordinated form of cell death called necrosis. During the course of apoptosis, characteristic phenotypical cellular changes occur, which include the condensation of chromatin, the shrinkage of cells and finally the fragmentation of chromosomal DNA. One of the very early change caused by apoptotic events occurs in the phospholipids bilayer of the plasma membrane. The phospholipid phosphatidylserine is translocated from the inner to the outer side of the plasma-membrane and, as a result, is exposed to the extracellular space. One way of detecting early apoptotic cells is to determine the amount of phosphatidyl-serine at the extracellular side of the plasma-membrane which is accomplished by the standard flow cytometric method of Annexin V staining. The phospholipids recognizing protein Annexin V binds with high affinity to these inverted and exposed phosphatidyl-serines.
# The ability of the compounds in this invention to induce apoptosis was tested in Ramos Burkitt-lymphoma cells. This cell line is one of the gold standard cell lines commonly used as a tissue culture model for B cell lymphoma. Representative compounds as indicated below were added to 80,000 cells per 500 μl growth medium (RPMI1640 medium supplemented with 2 mM L-Glutamine, 10% heat-inactivated FBS, 1 mM Na-Pyruvate and 10 mM HEPES) in 24 well format at various concentrations. Two days after the start of treatment, cells were collected and subjected to the Annexin V staining protocol following the instructions of the manufacturer (BD Biosciences). By using propidium iodide (PI) as a viability control, cells that stain positive for Annexin V, but negative for PI, are undergoing apoptosis.
structure (smiles),measurement,value
"O=C(Cc1ccc(-c2csc(NC(=O)Cc3ccccc3)n2)s1)NO [Example 1, N-Hydroxy-2-[5-(2-phenylacetylamino-thiazol-4-yl)-thiophen-2-yl]-acetamide]",% cells in late apoptosis (Ramos),76%
